Source: the CheMixHub viscosity set
± gives the uncertainty stated by the source.

Experiment: xn = mol fraction of the nth substance listed

CCCCCCCCCO + C1CCCCC1
viscosity [mPa·s]
Details	293.15 K	303.15 K	313.15 K	323.15 K
100 kPa, x2 = 0.0822	9.85 ± 0.79	6.89 ± 0.55	4.93 ± 0.4	3.66 ± 0.29
100 kPa, x2 = 0.1616	8.5 ± 0.68	6 ± 0.48	4.32 ± 0.35	3.23 ± 0.26
100 kPa, x2 = 0.2413	7.2 ± 0.58	5.17 ± 0.42	3.76 ± 0.3	2.83 ± 0.23
100 kPa, x2 = 0.3502	5.63 ± 0.45	4.15 ± 0.33	3.05 ± 0.25	2.33 ± 0.19
100 kPa, x2 = 0.4404	4.51 ± 0.36	3.44 ± 0.28	2.54 ± 0.2	1.96 ± 0.16
100 kPa, x2 = 0.5611	3.29 ± 0.26	2.63 ± 0.21	1.97 ± 0.16	1.56 ± 0.13
100 kPa, x2 = 0.6503	2.57 ± 0.21	2.13 ± 0.17	1.6 ± 0.1	1.3 ± 0.1
100 kPa, x2 = 0.7412	1.96 ± 0.16	1.68 ± 0.14	1.3 ± 0.1	1.08 ± 0.09
100 kPa, x2 = 0.8514	1.42 ± 0.11	1.26 ± 0.1	1.03 ± 0.08	0.86 ± 0.07
100 kPa, x2 = 0.9397	1.11 ± 0.09	0.97 ± 0.08	0.81 ± 0.07	0.7 ± 0.06
101.33 kPa, x1 = 0.105	–	1.068 ± 0.013	–	–
101.33 kPa, x1 = 0.2105	–	1.397 ± 0.017	–	–
101.33 kPa, x1 = 0.311	–	1.784 ± 0.021	–	–
101.33 kPa, x1 = 0.3969	–	2.186 ± 0.025	–	–
101.33 kPa, x1 = 0.4955	–	2.735 ± 0.031	–	–
101.33 kPa, x1 = 0.6055	–	3.462 ± 0.039	–	–
101.33 kPa, x1 = 0.6959	–	4.153 ± 0.047	–	–
101.33 kPa, x1 = 0.801	–	5.108 ± 0.057	–	–
101.33 kPa, x1 = 0.9054	–	6.215 ± 0.066	–	–

Cc1cccc2ccccc12 + CC1CCCCC1
viscosity [mPa·s], 100 kPa
Details	x1 = 0.125	x1 = 0.25	x1 = 0.375	x1 = 0.5	x1 = 0.625	x1 = 0.75	x1 = 0.875
303.15 K	0.715 ± 0.016	0.829 ± 0.019	0.972 ± 0.023	1.13 ± 0.027	1.37 ± 0.033	1.67 ± 0.04	2.06 ± 0.051
323.15 K	0.559 ± 0.013	0.64 ± 0.015	0.733 ± 0.017	0.853 ± 0.02	1.01 ± 0.024	1.2 ± 0.029	1.44 ± 0.036

C[NH+](C)CCO.O=C([O-])CC(=O)O + O
101 kPa, x2 = 0.88
Details	viscosity [mPa·s]
298 K	9.67
313 K	6.09

CC1CCCCC1=O (stereo unspecified) + CNC=O
viscosity [mPa·s], 100 kPa
Details	x1 = 0.0925	x1 = 0.1835	x1 = 0.2805	x1 = 0.3919	x1 = 0.4985	x1 = 0.5995	x1 = 0.6901	x1 = 0.7921	x1 = 0.8995
303.15 K	1.655 ± 0.038	1.722 ± 0.039	1.79 ± 0.041	1.865 ± 0.042	1.934 ± 0.044	1.997 ± 0.045	2.052 ± 0.047	2.111 ± 0.048	2.171 ± 0.049
308.15 K	1.541 ± 0.035	1.614 ± 0.037	1.689 ± 0.039	1.771 ± 0.04	1.847 ± 0.042	1.917 ± 0.044	1.978 ± 0.045	2.045 ± 0.046	2.111 ± 0.048
313.15 K	1.439 ± 0.033	1.518 ± 0.035	1.597 ± 0.036	1.684 ± 0.038	1.766 ± 0.04	1.842 ± 0.042	1.909 ± 0.043	1.982 ± 0.045	2.053 ± 0.047

Cc1c[nH]cn1 + c1ccccc1
viscosity [mPa·s], 101 kPa
Details	303.15 K	323.15 K
x1 = 0.003559	0.568 ± 0.015	–
x1 = 0.007082	0.584 ± 0.016	–
x1 = 0.02102	0.631 ± 0.017	0.479 ± 0.013
x1 = 0.02167	0.636 ± 0.017	0.48 ± 0.013
x1 = 0.04045	0.729 ± 0.019	0.533 ± 0.014
x1 = 0.04194	0.748 ± 0.02	0.543 ± 0.015
x1 = 0.04196	0.749 ± 0.02	–
x1 = 0.05112	0.796 ± 0.021	0.574 ± 0.015
x1 = 0.08708	1.004 ± 0.027	–
x1 = 0.1079	1.123 ± 0.03	–
x1 = 0.1551	1.496 ± 0.039	–
x1 = 0.2018	1.869 ± 0.049	–
x1 = 0.2491	2.344 ± 0.062	–

CC(=O)N(C)C + CCCCO
viscosity [mPa·s]
Details	298.15 K	303.15 K	313.15 K
100 kPa, x1 = 0.0565	2.252 ± 0.047	–	1.598 ± 0.033
100 kPa, x1 = 0.1063	2.049 ± 0.043	–	1.477 ± 0.031
100 kPa, x1 = 0.2094	1.716 ± 0.036	–	1.287 ± 0.027
100 kPa, x1 = 0.3134	1.503 ± 0.031	–	1.15 ± 0.024
100 kPa, x1 = 0.4106	1.361 ± 0.028	–	1.063 ± 0.022
100 kPa, x1 = 0.5083	1.263 ± 0.026	–	0.9979 ± 0.021
100 kPa, x1 = 0.6042	1.179 ± 0.025	–	0.9502 ± 0.02
100 kPa, x1 = 0.7096	1.119 ± 0.023	–	0.9082 ± 0.019
100 kPa, x1 = 0.8046	1.061 ± 0.022	–	0.8651 ± 0.018
100 kPa, x1 = 0.9078	0.9922 ± 0.021	–	0.8128 ± 0.017
100 kPa, x1 = 0.9575	0.9601 ± 0.02	–	0.7894 ± 0.017
101 kPa, x1 = 0.0968	–	1.862 ± 0.016	–
101 kPa, x1 = 0.1997	–	1.585 ± 0.014	–
101 kPa, x1 = 0.2976	–	1.43 ± 0.013	–
101 kPa, x1 = 0.4	–	1.281 ± 0.012	–
101 kPa, x1 = 0.4956	–	1.181 ± 0.012	–
101 kPa, x1 = 0.599	–	1.097 ± 0.011	–
101 kPa, x1 = 0.6978	–	1.029 ± 0.011	–
101 kPa, x1 = 0.7867	–	0.975 ± 0.01	–
101 kPa, x1 = 0.9006	–	0.917 ± 0.01	–
